{"source": "patent US20140234868A1", "about": "“USE FOR GLYCOLIPOPROTEIN GINTONIN, ISOLATED AND IDENTIFIED FROM GINSENG, AS A NATURAL MEDICAL-PLANT DERIVED LIGAND” (KONKUK UNIVERSITY INDUSTRIAL COOPERATION CORP., priority 2011, published 2014)", "key": {"[1]": {"system": "NMDA receptors (NR1 and NR2)", "test": "NMDA receptor activity in Xenopus oocytes, two-electrode voltage clamp", "assay_type": "cell-based", "conditions": "gintonin 1 μg/ml; Kil6425 10 μM; U73122, U73343 1 μM; 2-APB 100 μM; BAPTA 100 μM 3 h; genistein 10 μM; PP2, PP3 30 μM", "description": "cDNAs of NMDA receptor subunits (NR1 and NR2) were employed (Zheng et al., J Neurosci. 17, 8676-8686, 1997). cDNAs (100 ng/40 nl) corresponding to respective NMDA receptor subunits (NR1 and NR2) were injected into animal or vegetal poles of oocytes by use of a […] (VWR Scientific, USA) and incubated for 4-5 days after injection (Zheng et al., J Neurosci. 17, 8676-8686, 1997).\n(§1) Xenopus laevis frogs were obtained from Xenopus I (Ann Arbor, Mich.). Their care and handling were in accordance with the highest standards of institutional guidelines. To isolate oocytes, the frogs were operated on under anesthesia with an aerated solution of 3-aminobenzoic acid ethyl ester. Oocytes were separated by treatment with collagenase and agitation for two hours in a Ca^2+-free medium containing 82.5 mM NaCl, 2 mM KCl, 1 mM MgCl2, 5 mM HEPES, 2.5 mM sodium pyruvate, 100 units/ml penicillin and 100 μg/ml streptomycin.\n(§2) Stage V-VI oocytes were collected and stored in ND96 (96 mM NaCl, 2 mM KCl, 1 mM MgCl2, 1.8 mM CaCl2, and 5 mM HEPES, pH 7.4) supplemented with 50 μg/ml gentamicin. This oocyte containing solution was maintained at 18° C. with continuous gentle shaking while the ND96 medium was changed to a fresh one every day.\nTwo-electrode voltage-clamp recordings were obtained from individual oocytes placed in a small Plexiglas net chamber (5 ml). Electrophysiological experiments were performed using microelectrodes filled with 3 M KCl (resistance of 0.2-0.7 MΩ) and an Oocyte Clamp amplifier (OC-725C; Warner Instrument, Hamden, Conn.). For physiological recordings of NMDA receptor activity, oocytes were first perfused with Mg^2+-free ND96 (mM: 96 NaOH, 2 KOH, 0.3 CaCl2, 5 HEPES pH 7.6 with methanesulfonic acid). Then, the oocytes were clamped at −60 mV holding potential, followed by recoding NMDA currents (induced by administering […]) (Zheng et al., J Neurosci. 17, 8676-8686, 1997; Chang and Kuo, J Neurosci. 28, 1546-1556, 2008)."}, "BKCaK+ channels": {"system": "BKCaK+ channels", "test": "BKCa K+ channel activity in Xenopus oocytes, two-electrode voltage clamp", "assay_type": "cell-based", "conditions": "Kil6425 10 μM; U73122, U73343 1 μM; 2-APB 100 μM; BAPTA-AM; PMA 1 μM", "description": "as §1\nas §2, with “changed with” for “changed to”\nTwo-electrode voltage-clamp recordings were obtained from individual oocytes placed in a small Plexiglas net chamber (5 ml). Electrophysiological experiments were performed using microelectrodes filled with 3 M KCl (resistance of 0.2-0.7 MΩ) and an Oocyte Clamp amplifier (OC-725C; Warner Instrument, CT, USA) to record BKc K^+ channel activity at room temperature (Choi et al., Mol Cells 31, 133-140, 2011). For physiological recordings of BKCaK^+ channel activity, oocytes were first perfused with a Cl^−- and Ca^2+-free solution (mM: 96 NaOH, 2 KOH, 8 Mg-gluconate, 5 HEPES, 5 EGTA, pH 7.4 with methanesulfonic acid) supplemented with 500 μM anthracene-9-carboxylic acid, a Cl^− channel blocker, to block endogenous Cl-channels (Lu et al., J. Biol. Chem. 265, 16190-16194.1990). Then, the oocytes were clamped at −80 mV holding potential, followed by step depolarization from the holding potential to +40 mV at regular intervals of […] for 400 ms to record outward currents."}, "mice": {"system": "mice", "test": "Busulfan-caused diarrhea and mucositis in mice", "assay_type": "in vivo, mouse", "conditions": "busulfan 40 mg/kg i.p.; for Diarrhea (cases / mice) / Mucositis (cases / mice): gintonin 100 mg/kg oral 3 days before, observed 10 days", "description": "In this Example, an examination was made of the inhibitory activity of gintonin against chemotherapy-induced diarrhea and mucositis. For this, gintonin-treated mice were administered with busulfan, and observed for diarrhea and mucostitis.\nBriefly, mice were orally administered at a dose of 100 mg/kg with gintonin 3 days before intraperitoneal injection with busulfan (40 mg/kg). For the control, physiological saline was used, instead of gintonin."}}, "data": [{"compound": "COc1ccc2c(c1)CC[C@@H]1[C@@H]2CC[C@]2(C)[C@@H](NCCCCCCN3C(=O)CCC3=O)CC[C@@H]12", "note": "[U73343]", "values": [{"measurement": "effect on gintonin-induced NMDA receptor activation", "setting": "[1]", "result": "did not block gintonin-induced NMDA receptor activation"}, {"measurement": "effect on gintonin-induced BKCaK+ channel activation", "setting": "BKCaK+ channels", "result": "did not block gintonin-induced BKCaK^+ channel activation"}]}, {"compound": "Nc1ncnc2c1cnn2-c1ccccc1", "note": "[PP3]", "values": [{"measurement": "effect on gintonin-induced NMDA receptor activation", "setting": "[1]", "result": "did not show inhibitory activity"}]}, {"compound": "O=c1c(-c2ccc(O)cc2)coc2cc(O)cc(O)c12", "note": "[Genistein]", "values": [{"measurement": "effect on gintonin-induced NMDA receptor activation", "setting": "[1]", "result": "inhibit gintonin-induced NMDA receptor activation"}]}, {"compound": "CC(C)(C)n1nc(-c2ccc(Cl)cc2)c2c(N)ncnc21", "note": "[PP2]", "values": [{"measurement": "effect on gintonin-induced NMDA receptor activation", "setting": "[1]", "result": "blocked the action of gintonin"}]}, {"compound": "CS(=O)(=O)OCCCCOS(C)(=O)=O", "note": "[Busulfan, busulfan, reference compound]", "values": [{"measurement": "diarrhea morbidity rate", "setting": "mice; gintonin 100 mg/kg oral", "result": 53.3, "unit": "%"}, {"measurement": "perianal mucositis morbidity", "setting": "mice; gintonin 100 mg/kg oral", "result": 46.7, "unit": "%"}, {"measurement": "Diarrhea (cases / mice)", "setting": "mice", "result": "8/15"}, {"measurement": "Mucositis (cases / mice)", "setting": "mice", "result": "7/15"}, {"measurement": "Mucositis (cases / mice)", "setting": "mice; listed as bufulfan", "result": 7}, {"measurement": "Diarrhea (cases / mice)", "setting": "mice; listed as busulfan", "result": 8}]}]}
